Where two headings read alike, the source gives them in different places. Blank lines part the entries; values can stand above or below the compound they belong to.
Tested on: Adjuvant Arthritis In Rats
Assay: Adjuvant-induced arthritis in rats (chronic inflammation accompanied by joint destruction)
Assay type: in vivo, Royal Hart, Wistar strain rats
Details: for inhibition in vivo at 50 mg/kg / inhibition in vivo at 25 mg/kg / inhibition in vivo at 100 mg/kg / inhibition in vivo at 200 mg/kg / inhibition in vivo at 400 mg/kg: Rattus norvegicus
Method: Groups of three Royal Hart, Wistar strain rats weighing 200±10 grams each were injected intradermally in the right hind paw with Freund's adjuvant (dried human tubercle bacilli in a mineral oil vehicle) at a dose of 2 mg./kg. of body weight. […] On the 14th and 21st day post challenge the diameter of the injected paw (primary lesion) was measured by micrometer caliper. The volume of inflamed paws were estimated from these measurements and the results are expressed as percent inhibition of swelling as compared to controls. At the same time, the other inflamed sites, such as ears, paws and tail (secondary lesions) were observed and each rat was graded as to degree of inflammation and swelling present. The grading is based on a scale of 0 to 24 where 0 represents a complete absence of induced arthritic nodules and 24 represents the maximum degree of inflammation. The mean grade for each treated group is calculated and the effects of each compound are expressed as percent inhibition of the control grade.

[1] = 336 h, oral 50 mg./kg. once daily days 0-13, Day 14, read-out: % Inhibition of Swelling (primary lesion) Day 14
[2] = 504 h, oral 50 mg./kg. once daily days 0-13, Day 21, read-out: % Inhibition of Swelling (primary lesion) Day 21
[3] = oral 50 mg./kg. once daily days 0-13, Day 14
[4] = oral 50 mg./kg. once daily days 0-13, Day 21
[5] = oral 50 mg./kg. once daily days 0-13
[6] = po, 336 h, read-out: % Inhibition of Swelling (primary lesion) Day 14
[7] = po, 504 h, read-out: % Inhibition of Swelling (primary lesion) Day 21
[8] = oral 25 mg./kg. once daily days 0-13, Day 14
[9] = oral 25 mg./kg. once daily days 0-13, Day 21
[10] = oral 100 mg./kg. once daily days 0-13, Day 14
[11] = oral 100 mg./kg. once daily days 0-13, Day 21
[12] = oral 100 mg./kg. once daily days 0-13
[13] = oral 200 mg./kg. once daily days 0-13, Day 14
[14] = oral 200 mg./kg. once daily days 0-13, Day 21
[15] = oral 400 mg./kg. once daily days 0-13, Day 14
[16] = oral 400 mg./kg. once daily days 0-13, Day 21

SMILES: CC(C)(C)C(C)(C)Nc1nc(N[C@H]2C[C@@H]3CC[C@H]2C3)nc(NC(C)(C)C(C)(C)C)n1 (relative stereo) [N^2-(exo[2.2.1]norbornyl)-N^4, N^6-bis(1,1,2,2-tetramethylpropyl)melamine]
- inhibition in vivo at 50 mg/kg [1]: 49%
- inhibition in vivo at 50 mg/kg [2]: 24%
- Mean Weight Gain (grams) Day 14 [3]: 97 grams
- Mean Weight Gain (grams) Day 21 [4]: 93 grams
- Dead/Treated at 21 Days [5]: 0/3

SMILES: CC(C)(C)CC(C)(C)Nc1nc(NC(C)(C)C)nc(N2CC3CCC(CC3)C2)n1 [2-(tert-butylamino)-4-(1,1,3,3-tetramethylbutylamino)-6-(3-azabicyclo[3.2.2]nonyl)-s-triazine]
- inhibition in vivo at 50 mg/kg [6]: 42%
- inhibition in vivo at 50 mg/kg [7]: 14%
- Mean Weight Gain (grams) Day 14 [3]: 85 grams
- Mean Weight Gain (grams) Day 21 [4]: 87 grams
- Dead/Treated at 21 Days [5]: 3/18

SMILES: CCCCNc1nc(N2CC3CCC(CC3)C2)nc(N2CC3CCC(CC3)C2)n1 [3,3'-(6-butylamino-s-triazin-2,4-diyl)bis-3-azabicyclo[3.2.2]nonane]
- inhibition in vivo at 50 mg/kg [6]: 46%
- inhibition in vivo at 50 mg/kg [7]: 32%
- Mean Weight Gain (grams) Day 14 [3]: 82 grams
- Mean Weight Gain (grams) Day 21 [4]: 107 grams
- Dead/Treated at 21 Days [5]: 2/12

SMILES: CC(C)(C)CC(C)(C)Nc1nc(NC(C)(C)CC(C)(C)C)nc(N2CC3CCC(CC3)C2)n1 [3-[4,6-bis(1,1,3,3-tetramethylbutylamino)-s-triazin-2-yl]-3-azabicyclo[3.2.2]nonane]
- inhibition in vivo at 50 mg/kg [6]: 59%
- inhibition in vivo at 50 mg/kg [7]: 23%
- Mean Weight Gain (grams) Day 14 [3]: 76 grams
- Mean Weight Gain (grams) Day 21 [4]: 67 grams
- Dead/Treated at 21 Days [5]: 2/18

SMILES: CC(C)(C)Nc1nc(NC(C)(C)C)nc(N2CC3CCC(CC3)C2)n1 [3-[4,6-bis(tert-butylamino)-s-triazin-2-yl]-3-azabicyclo[3.2.2]nonane]
- inhibition in vivo at 50 mg/kg [6]: 61%
- inhibition in vivo at 50 mg/kg [7]: 22%
- Mean Weight Gain (grams) Day 14 [3]: 87 grams
- Mean Weight Gain (grams) Day 21 [4]: 69 grams
- Dead/Treated at 21 Days [5]: 1/9

SMILES: CC(C)(C)CC(C)(C)Nc1nc(NC(C)(C)C(C)(C)C)nc(N2CC3CCC(CC3)C2)n1 [3-[4-(1,1,3,3-tetramethylbutylamino)-6-[(1,1,2,2-tetramethylpropyl)amino]-s-triazin-2-yl]-3-azabicyclo[3.2.2]nonane]
- inhibition in vivo at 50 mg/kg [6]: 74%
- inhibition in vivo at 50 mg/kg [7]: 42%
- Mean Weight Gain (grams) Day 14 [3]: 66 grams
- Mean Weight Gain (grams) Day 21 [4]: 91 grams
- Dead/Treated at 21 Days [5]: 0/12

SMILES: CC(C)(C)CC(C)(C)Nc1nc(Nc2ccc(F)cc2)nc(N2CC3CCC(CC3)C2)n1 [3-[4-p-fluoroanilino-6-(1,1,3,3-tetramethylbutylamino)-s-triazin-2-yl]-3-azabicyclo[3.2.2]nonane]
- inhibition in vivo at 50 mg/kg [6]: 32%
- inhibition in vivo at 50 mg/kg [7]: 18%
- Mean Weight Gain (grams) Day 14 [3]: 68 grams
- Mean Weight Gain (grams) Day 21 [4]: 50 grams
- Dead/Treated at 21 Days [5]: 1/18

SMILES: CC(C)(C)C(C)(C)Nc1nc(NC(C)(C)C(C)(C)C)nc(N2CC3CCC(CC3)C2)n1 [3-{4,6-bis[(1,1,2,2-tetramethylpropyl)amino]-s-triazin-2-yl}-3-azabicyclo[3.2.2]nonane]
- inhibition in vivo at 25 mg/kg [6]: 42%
- inhibition in vivo at 50 mg/kg [6]: 58%
- inhibition in vivo at 100 mg/kg [6]: 74%
- inhibition in vivo at 25 mg/kg [7]: 24%
- inhibition in vivo at 50 mg/kg [7]: 34%
- inhibition in vivo at 100 mg/kg [7]: 41%
- % Inhibition of Control Grade (secondary lesion) Day 14 [8]: 44%
- Mean Weight Gain (grams) Day 14 [8]: 74 grams
- % Inhibition of Control Grade (secondary lesion) Day 21 [9]: 12%
- Mean Weight Gain (grams) Day 21 [9]: 70 grams
- Dead/Treated at 21 Days (oral 25 mg./kg. once daily days 0-13): 1/18
- % Inhibition of Control Grade (secondary lesion) Day 14 [3]: 48%
- Mean Weight Gain (grams) Day 14 [3]: 56 grams
- % Inhibition of Control Grade (secondary lesion) Day 21 [4]: 20%
- Mean Weight Gain (grams) Day 21 [4]: 58 grams
- Dead/Treated at 21 Days [5]: 0/36
- % Inhibition of Control Grade (secondary lesion) Day 14 [10]: 69%
- Mean Weight Gain (grams) Day 14 [10]: 73 grams
- % Inhibition of Control Grade (secondary lesion) Day 21 [11]: 45%
- Mean Weight Gain (grams) Day 21 [11]: 62 grams
- Dead/Treated at 21 Days [12]: 1/18

SMILES: CC(=O)Oc1ccccc1C(=O)O [Aspirin]
- inhibition in vivo at 50 mg/kg [1]: 23%
- inhibition in vivo at 100 mg/kg (336 h, oral 100 mg./kg. once daily days 0-13, Day 14, read-out: % Inhibition of Swelling (primary lesion) Day 14): 36%
- inhibition in vivo at 200 mg/kg (336 h, oral 200 mg./kg. once daily days 0-13, Day 14, read-out: % Inhibition of Swelling (primary lesion) Day 14): 48%
- inhibition in vivo at 400 mg/kg (336 h, oral 400 mg./kg. once daily days 0-13, Day 14, read-out: % Inhibition of Swelling (primary lesion) Day 14): 73%
- inhibition in vivo at 50 mg/kg [2]: 3%
- inhibition in vivo at 100 mg/kg (504 h, oral 100 mg./kg. once daily days 0-13, Day 21, read-out: % Inhibition of Swelling (primary lesion) Day 21): 13%
- inhibition in vivo at 200 mg/kg (504 h, oral 200 mg./kg. once daily days 0-13, Day 21, read-out: % Inhibition of Swelling (primary lesion) Day 21): 27%
- inhibition in vivo at 400 mg/kg (504 h, oral 400 mg./kg. once daily days 0-13, Day 21, read-out: % Inhibition of Swelling (primary lesion) Day 21): 48%
- % Inhibition of Control Grade (secondary lesion) Day 14 [3]: 12%
- Mean Weight Gain (grams) Day 14 [3]: 56 grams
- % Inhibition of Control Grade (secondary lesion) Day 21 [4]: 9%
- Mean Weight Gain (grams) Day 21 [4]: 44 grams
- Dead/Treated at 21 Days [5]: 2/21
- % Inhibition of Control Grade (secondary lesion) Day 14 [10]: 19%
- Mean Weight Gain (grams) Day 14 [10]: 48 grams
- % Inhibition of Control Grade (secondary lesion) Day 21 [11]: 8%
- Mean Weight Gain (grams) Day 21 [11]: 53 grams
- Dead/Treated at 21 Days [12]: 18/63
- % Inhibition of Control Grade (secondary lesion) Day 14 [13]: 26%
- Mean Weight Gain (grams) Day 14 [13]: 40 grams
- % Inhibition of Control Grade (secondary lesion) Day 21 [14]: 17%
- Mean Weight Gain (grams) Day 21 [14]: 44 grams
- Dead/Treated at 21 Days (oral 200 mg./kg. once daily days 0-13): 10/66
- % Inhibition of Control Grade (secondary lesion) Day 14 [15]: 58%
- Mean Weight Gain (grams) Day 14 [15]: 41 grams
- % Inhibition of Control Grade (secondary lesion) Day 21 [16]: 45%
- Mean Weight Gain (grams) Day 21 [16]: 55 grams
- Dead/Treated at 21 Days (oral 400 mg./kg. once daily days 0-13): 18/57

- Mean Weight Gain (grams) Day 14 [3]: 94 grams
- Mean Weight Gain (grams) Day 21 [4]: 89 grams
- Dead/Treated at 21 Days [5]: 1/12
SMILES: CC(C)(C)C(C)(C)Nc1nc(NC23CC4CC(CC(C4)C2)C3)nc(NC(C)(C)C(C)(C)C)n1 [N^2-1-adamantyl-N^4,N^6-bis(1,1,2,2-tetramethylpropyl)melamine]
- inhibition in vivo at 50 mg/kg [1]: 47%
- inhibition in vivo at 50 mg/kg [2]: 17%

- Mean Weight Gain (grams) Day 14 [3]: 148 grams
- Mean Weight Gain (grams) Day 21 [4]: 181 grams
- Dead/Treated at 21 Days [5]: 1/3
SMILES: CC(C)(C)C(C)(C)Nc1nc(NC2C3CC4CC(C3)CC2C4)nc(NC(C)(C)C(C)(C)C)n1 (stereo not shown) [N^2-2-adamantyl-N^4,N^6-bis(1,1,2,2-tetramethylpropyl)melamine]
- inhibition in vivo at 50 mg/kg [1]: 79%
- inhibition in vivo at 50 mg/kg [2]: 83%

— patent US4261892A, “2,4,6-Tris-(substituted-amino)-s-triazines” (American Cyanamid Company, priority 1979, dated 1981)
